Assay results reported in the NIST ThermoML archive (doi:10.1016/j.jct.2008.05.006).
“And” between values parts separate entries of the source, which are not always exact repeats. Equal values may be shown once.

How the values were obtained:
[1] = for vapor or sublimation pressure: Calculated from knudsen effusion weight loss; for Triple point temperature: DTA
[2] = molar heat capacity at constant pressure; conditions: 101.33 kPa, Small sample (50 mg) DSC
[3] = Molar enthalpy of transition or fusion; conditions: Crystal 3; DSC

O=C1NC(=O)C(=O)N1 [parabanic acid]
Conditions	molar heat capacity at constant pressure [J/K/mol]	vapor or sublimation pressure
[1], 381.17 K, Crystal 3	–	0.0001133 kPa and 0.0001078 kPa
[1], 383.17 K, Crystal 3	–	0.0001373 kPa and 0.0001334 kPa
[1], 385.18 K, Crystal 3	–	0.0001672 kPa and 0.0001691 kPa and 0.000159 kPa
[1], 387.17 K, Crystal 3	–	0.0001972 kPa [middle of 4 runs]
[1], 389.17 K, Crystal 3	–	0.0002355 kPa and 0.0002336 kPa and 0.0002271 kPa
[1], 391.18 K, Crystal 3	–	0.000285 kPa and 0.000287 kPa
[1], 393.18 K, Crystal 2	–	0.0003353 kPa and 0.0003334 kPa
[1], 395.17 K, Crystal 2	–	0.0004133 kPa and 0.0004042 kPa
[1], 397.16 K, Crystal 2	–	0.0004877 kPa
[1], 397.18 K, Crystal 2	–	0.000484 kPa
[1], 399.17 K, Crystal 2	–	0.0005715 kPa
[1], 401.18 K, Crystal 2	–	0.0006635 kPa
[1], 403.17 K, Crystal 2	–	0.0008169 kPa
[1], 405.2 K, Crystal 2	–	0.0009469 kPa and 0.0009581 kPa
[1], 406.17 K, Crystal 2	–	0.001047 kPa and 0.001039 kPa
[2], 263.15 K, Crystal 3	153.78	–
[2], 265.15 K, Crystal 3	154.68	–
[2], 270.15 K, Crystal 3	157.16	–
[2], 273.15 K, Crystal 3	158.53	–
[2], 275.15 K, Crystal 3	159.48	–
[2], 280.15 K, Crystal 3	161.53	–
[2], 285.15 K, Crystal 3	163.59	–
[2], 290.15 K, Crystal 3	165.7	–
[2], 295.15 K, Crystal 3	167.6	–
[2], 300.15 K, Crystal 3	169.81	–
[2], 305.15 K, Crystal 3	172.08	–
[2], 310.15 K, Crystal 3	174.5	–
[2], 315.15 K, Crystal 3	177.24	–
[2], 320.15 K, Crystal 3	179.33	–
[2], 325.15 K, Crystal 3	180.62	–
[2], 330.15 K, Crystal 3	182.52	–
[2], 335.15 K, Crystal 3	184.84	–
[2], 340.15 K, Crystal 3	187.21	–
[2], 345.15 K, Crystal 3	189.26	–
[2], 350.15 K, Crystal 3	191.69	–
[2], 355.15 K, Crystal 3	193.8	–
[2], 360.15 K, Crystal 3	196.01	–
[2], 365.15 K, Crystal 3	197.59	–
[2], 370.15 K, Crystal 3	200.07	–
[2], 375.15 K, Crystal 3	201.42	–
[2], 380.15 K, Crystal 3	203.59	–
[2], 400.15 K, Crystal 2	211.5	–
[2], 405.15 K, Crystal 2	213.6	–
[2], 410.15 K, Crystal 2	215.93	–
[2], 415.15 K, Crystal 2	216.68	–
[2], 420.15 K, Crystal 2	218.83	–
[2], 425.15 K, Crystal 2	220.28	–
[2], 430.15 K, Crystal 2	222.89	–
[2], 435.15 K, Crystal 2	225.62	–
[2], 440.15 K, Crystal 2	227.43	–
[2], 445.15 K, Crystal 2	229.93	–
[2], 450.15 K, Crystal 2	232.06	–
[2], 455.15 K, Crystal 2	234.43	–
[2], 460.15 K, Crystal 2	236.96	–
[2], 465.15 K, Crystal 2	239.26	–
[2], 470.15 K, Crystal 2	241.31	–
[2], 473.15 K, Crystal 2	243.13	–

[1]
Conditions	Triple point temperature [K]
Crystal 1	520
Crystal 2	509.8
Crystal 3	392.3

Conditions	Molar enthalpy of transition or fusion [kcal/mol]
[3]	0.502
